Where two headings read alike, the source gives them in different places.
Key:
Assay in all cases: Kinase binding screen
Details in all cases: read-out: Percent Control at 100 nM Compound Concentration
[1] = biological target: ABL1(F317L)-nonphosphorylated (Homo sapiens (Human), UniProt P00519, F317L)
ASK1 = ASK1 (Homo sapiens (Human), UniProt Q99683)
CAMK1B = CAMK1B (Homo sapiens (Human), UniProt Q6P2M8)
CDK2 = CDK2 (Homo sapiens (Human), UniProt P24941)
CDK9 = CDK9 (Homo sapiens (Human), UniProt P50750)
CLK2 = CLK2 (Homo sapiens (Human), UniProt P49760)
EPHB1 = EPHB1 (Homo sapiens (Human), UniProt P54762)
GRK4 = GRK4 (Homo sapiens (Human), UniProt P32298)
HIPK1 = HIPK1 (Homo sapiens (Human), UniProt Q86Z02)
INSRR = INSRR (Homo sapiens (Human), UniProt P14616)
KIT(D816H) = KIT(D816H) (Homo sapiens (Human), UniProt P10721, D816H)
LOK = LOK (Homo sapiens (Human), UniProt O94804)
LYN = LYN (Homo sapiens (Human), UniProt P07948)
MEK5 = MEK5 (Homo sapiens (Human), UniProt Q13163)
MRCKA = MRCKA (Homo sapiens (Human), UniProt Q5VT25)
MST1 = MST1 (Homo sapiens (Human), UniProt Q13043)
NDR1 = NDR1 (Homo sapiens (Human), UniProt Q15208)
NEK9 = NEK9 (Homo sapiens (Human), UniProt Q8TD19)
PAK7 = PAK7 (Homo sapiens (Human), UniProt Q9P286)
PIK3CD = PIK3CD (Homo sapiens (Human), UniProt O00329)
PIK3CG = PIK3CG (Homo sapiens (Human), UniProt P48736)
[2] = biological target: RSK1(Kin.Dom.1-N-terminal) (Homo sapiens (Human), UniProt Q15418)
SgK110 = SgK110 (Homo sapiens (Human), UniProt P0C264)
SRC = SRC (Homo sapiens (Human), UniProt P12931)
TGFBR2 = TGFBR2 (Homo sapiens (Human), UniProt P37173)
TLK1 = TLK1 (Homo sapiens (Human), UniProt Q9UKI8)
TLK2 = TLK2 (Homo sapiens (Human), UniProt Q86UE8)
TRKA = TRKA (Homo sapiens (Human), UniProt P04629)
[3] = biological target: TYK2(JH2domain-pseudokinase) (Homo sapiens (Human), UniProt P29597)

Sequence of MRCKA (Q5VT25 whole entry): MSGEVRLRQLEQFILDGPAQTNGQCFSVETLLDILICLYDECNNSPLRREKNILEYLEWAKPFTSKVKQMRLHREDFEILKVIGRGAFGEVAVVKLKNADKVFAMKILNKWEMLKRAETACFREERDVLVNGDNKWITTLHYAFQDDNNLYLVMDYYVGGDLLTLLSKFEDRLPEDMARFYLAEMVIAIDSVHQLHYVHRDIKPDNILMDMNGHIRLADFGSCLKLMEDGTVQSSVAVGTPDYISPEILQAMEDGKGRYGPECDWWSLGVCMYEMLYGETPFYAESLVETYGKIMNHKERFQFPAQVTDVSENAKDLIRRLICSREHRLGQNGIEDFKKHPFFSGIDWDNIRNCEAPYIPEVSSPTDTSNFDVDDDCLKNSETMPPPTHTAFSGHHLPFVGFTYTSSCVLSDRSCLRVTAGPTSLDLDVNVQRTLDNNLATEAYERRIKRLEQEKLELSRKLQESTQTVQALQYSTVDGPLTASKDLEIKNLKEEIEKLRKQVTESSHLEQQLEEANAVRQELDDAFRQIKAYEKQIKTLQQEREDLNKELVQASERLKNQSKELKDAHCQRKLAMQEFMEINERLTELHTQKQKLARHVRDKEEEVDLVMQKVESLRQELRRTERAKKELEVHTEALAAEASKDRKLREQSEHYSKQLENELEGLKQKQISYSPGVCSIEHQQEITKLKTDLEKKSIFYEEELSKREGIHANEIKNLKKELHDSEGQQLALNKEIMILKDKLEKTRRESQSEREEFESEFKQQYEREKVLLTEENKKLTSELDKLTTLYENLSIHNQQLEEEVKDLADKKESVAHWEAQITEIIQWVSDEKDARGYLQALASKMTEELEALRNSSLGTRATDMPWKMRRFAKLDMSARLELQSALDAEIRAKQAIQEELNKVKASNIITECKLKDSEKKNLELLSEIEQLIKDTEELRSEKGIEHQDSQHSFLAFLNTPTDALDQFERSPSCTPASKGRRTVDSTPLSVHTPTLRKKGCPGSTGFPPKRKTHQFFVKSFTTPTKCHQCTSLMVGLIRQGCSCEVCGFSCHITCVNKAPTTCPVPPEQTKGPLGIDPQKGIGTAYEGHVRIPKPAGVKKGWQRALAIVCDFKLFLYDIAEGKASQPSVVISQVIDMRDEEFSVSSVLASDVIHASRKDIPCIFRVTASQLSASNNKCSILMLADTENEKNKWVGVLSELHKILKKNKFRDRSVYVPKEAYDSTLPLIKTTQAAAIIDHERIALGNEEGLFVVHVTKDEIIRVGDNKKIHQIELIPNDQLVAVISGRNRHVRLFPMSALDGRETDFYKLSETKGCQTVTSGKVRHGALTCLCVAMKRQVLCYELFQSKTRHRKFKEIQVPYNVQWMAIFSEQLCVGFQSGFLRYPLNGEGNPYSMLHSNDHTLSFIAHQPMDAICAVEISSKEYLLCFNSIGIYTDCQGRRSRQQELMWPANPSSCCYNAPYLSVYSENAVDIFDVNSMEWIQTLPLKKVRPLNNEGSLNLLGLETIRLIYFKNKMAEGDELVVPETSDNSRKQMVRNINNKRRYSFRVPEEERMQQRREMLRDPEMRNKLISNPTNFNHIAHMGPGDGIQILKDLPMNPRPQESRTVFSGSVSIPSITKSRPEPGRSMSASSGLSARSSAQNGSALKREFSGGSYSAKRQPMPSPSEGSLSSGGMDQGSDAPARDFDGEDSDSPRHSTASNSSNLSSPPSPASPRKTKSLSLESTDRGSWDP
Sequence of MEK5 (Q13163 whole entry): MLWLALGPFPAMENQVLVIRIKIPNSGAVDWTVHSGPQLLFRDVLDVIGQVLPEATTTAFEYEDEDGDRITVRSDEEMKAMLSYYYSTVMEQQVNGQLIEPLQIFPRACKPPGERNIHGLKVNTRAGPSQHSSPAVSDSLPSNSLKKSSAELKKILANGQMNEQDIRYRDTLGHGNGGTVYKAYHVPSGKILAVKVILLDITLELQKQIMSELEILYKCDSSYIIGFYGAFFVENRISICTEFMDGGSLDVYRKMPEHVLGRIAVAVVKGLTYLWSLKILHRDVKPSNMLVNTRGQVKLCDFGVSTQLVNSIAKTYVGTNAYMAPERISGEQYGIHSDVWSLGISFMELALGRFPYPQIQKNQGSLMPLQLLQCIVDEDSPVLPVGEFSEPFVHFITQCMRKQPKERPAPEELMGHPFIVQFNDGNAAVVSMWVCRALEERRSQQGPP
Sequence of KIT(D816H) (P10721 26-976 D816H): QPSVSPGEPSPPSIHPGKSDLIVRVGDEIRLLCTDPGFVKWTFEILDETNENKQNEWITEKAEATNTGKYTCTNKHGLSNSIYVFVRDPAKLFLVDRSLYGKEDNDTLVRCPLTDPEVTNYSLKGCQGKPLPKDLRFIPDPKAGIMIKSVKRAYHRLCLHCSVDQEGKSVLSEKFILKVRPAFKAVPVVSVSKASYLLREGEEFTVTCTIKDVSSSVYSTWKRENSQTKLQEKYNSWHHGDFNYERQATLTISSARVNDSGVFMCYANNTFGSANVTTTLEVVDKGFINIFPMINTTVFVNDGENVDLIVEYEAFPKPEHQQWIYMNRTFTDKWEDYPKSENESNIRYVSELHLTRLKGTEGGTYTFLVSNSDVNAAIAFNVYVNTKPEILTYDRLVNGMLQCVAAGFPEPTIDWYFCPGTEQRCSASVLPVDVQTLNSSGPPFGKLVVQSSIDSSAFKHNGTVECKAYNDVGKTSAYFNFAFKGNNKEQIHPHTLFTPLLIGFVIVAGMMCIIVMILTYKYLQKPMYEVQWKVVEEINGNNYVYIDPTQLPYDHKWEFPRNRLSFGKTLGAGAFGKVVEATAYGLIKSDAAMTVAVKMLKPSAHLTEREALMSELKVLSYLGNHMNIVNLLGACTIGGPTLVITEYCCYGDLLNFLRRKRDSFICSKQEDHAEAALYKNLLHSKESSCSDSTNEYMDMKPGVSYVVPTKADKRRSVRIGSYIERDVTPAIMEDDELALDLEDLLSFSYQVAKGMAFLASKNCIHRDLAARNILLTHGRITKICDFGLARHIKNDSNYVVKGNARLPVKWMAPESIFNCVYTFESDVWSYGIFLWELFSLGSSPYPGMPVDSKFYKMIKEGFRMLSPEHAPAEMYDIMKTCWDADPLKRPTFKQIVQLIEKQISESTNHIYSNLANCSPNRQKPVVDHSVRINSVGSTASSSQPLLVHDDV
Sequence of INSRR (P14616 27-1297): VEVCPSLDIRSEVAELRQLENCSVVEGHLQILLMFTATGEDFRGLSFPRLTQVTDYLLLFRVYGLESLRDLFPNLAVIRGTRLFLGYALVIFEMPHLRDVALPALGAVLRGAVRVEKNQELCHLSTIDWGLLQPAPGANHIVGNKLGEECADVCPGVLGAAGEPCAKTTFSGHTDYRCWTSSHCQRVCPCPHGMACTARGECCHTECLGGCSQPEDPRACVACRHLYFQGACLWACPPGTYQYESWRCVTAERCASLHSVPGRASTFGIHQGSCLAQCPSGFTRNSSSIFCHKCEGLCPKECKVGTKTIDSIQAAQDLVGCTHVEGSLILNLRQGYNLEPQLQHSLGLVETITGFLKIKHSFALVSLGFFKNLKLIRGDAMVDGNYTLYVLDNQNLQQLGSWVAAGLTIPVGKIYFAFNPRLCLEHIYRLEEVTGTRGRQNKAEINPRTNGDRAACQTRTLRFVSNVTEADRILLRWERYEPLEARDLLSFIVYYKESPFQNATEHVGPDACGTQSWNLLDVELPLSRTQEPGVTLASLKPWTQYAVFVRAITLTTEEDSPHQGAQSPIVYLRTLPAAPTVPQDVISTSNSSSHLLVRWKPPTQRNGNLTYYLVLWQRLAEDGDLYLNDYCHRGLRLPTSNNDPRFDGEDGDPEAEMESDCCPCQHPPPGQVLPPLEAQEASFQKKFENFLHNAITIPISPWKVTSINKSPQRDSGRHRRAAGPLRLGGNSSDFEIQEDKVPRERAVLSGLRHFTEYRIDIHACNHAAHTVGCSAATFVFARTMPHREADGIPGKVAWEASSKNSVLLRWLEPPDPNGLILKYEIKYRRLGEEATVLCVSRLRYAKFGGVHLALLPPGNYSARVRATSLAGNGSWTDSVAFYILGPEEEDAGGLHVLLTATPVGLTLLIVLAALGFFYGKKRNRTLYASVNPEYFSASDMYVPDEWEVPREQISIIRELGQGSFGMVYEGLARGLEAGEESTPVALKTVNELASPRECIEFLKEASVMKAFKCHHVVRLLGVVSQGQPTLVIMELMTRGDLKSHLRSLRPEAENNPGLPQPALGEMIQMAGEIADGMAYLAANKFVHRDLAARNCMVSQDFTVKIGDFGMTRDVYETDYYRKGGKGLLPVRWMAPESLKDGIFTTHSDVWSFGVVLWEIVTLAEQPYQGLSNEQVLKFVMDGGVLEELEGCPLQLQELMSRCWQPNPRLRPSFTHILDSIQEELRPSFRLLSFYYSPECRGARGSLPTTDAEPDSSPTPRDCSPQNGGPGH
Sequence of LYN (P07948 whole entry): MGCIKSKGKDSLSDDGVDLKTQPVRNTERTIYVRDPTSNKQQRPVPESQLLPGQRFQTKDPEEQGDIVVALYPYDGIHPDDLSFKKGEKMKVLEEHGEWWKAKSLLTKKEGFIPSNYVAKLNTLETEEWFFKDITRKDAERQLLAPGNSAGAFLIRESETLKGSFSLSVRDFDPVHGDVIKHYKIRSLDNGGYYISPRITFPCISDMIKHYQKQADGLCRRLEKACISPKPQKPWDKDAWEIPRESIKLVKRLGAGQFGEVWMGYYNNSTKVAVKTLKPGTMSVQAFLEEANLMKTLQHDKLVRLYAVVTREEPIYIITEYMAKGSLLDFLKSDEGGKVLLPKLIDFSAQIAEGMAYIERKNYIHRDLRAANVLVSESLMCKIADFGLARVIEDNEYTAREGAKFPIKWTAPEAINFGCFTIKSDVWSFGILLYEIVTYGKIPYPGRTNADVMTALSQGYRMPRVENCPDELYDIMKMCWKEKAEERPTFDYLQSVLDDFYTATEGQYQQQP

Compound CN(C[C@@H](O)Cc1ccccc1)C(=O)c1cncc(C#Cc2cnn(C(F)F)c2)c1 [Example 2, (S)-5-((1-(difluoromethyl)-1H-pyrazol-4-yl)ethynyl)-N-(2-hydroxy-3-phenylpropyl)-N-methylnicotinamide] has a remaining activity at 0.1 µM ([1]; ABL1(F317L)-nonphosphorylated) of 100%, a remaining activity at 0.1 µM (ASK1; ASK1) of 88% and a remaining activity at 0.1 µM (CAMK1B; CAMK1B) of 82%. It also gave a remaining activity at 0.1 µM (CDK2; CDK2) of 100%, a remaining activity at 0.1 µM (CDK9; CDK9) of 100% and a remaining activity at 0.1 µM (CLK2; CLK2) of 95%. The remaining activity at 0.1 µM (EPHB1; EPHB1) was 100%, the remaining activity at 0.1 µM (GRK4; GRK4) was 100% and the remaining activity at 0.1 µM (HIPK1; HIPK1) was 72%. It also gave a remaining activity at 0.1 µM (INSRR; INSRR) of 100%, a remaining activity at 0.1 µM (KIT(D816H); KIT(D816H)) of 100% and a remaining activity at 0.1 µM (LOK; LOK) of 100%. It also gave a remaining activity at 0.1 µM (LYN; LYN) of 71%, a remaining activity at 0.1 µM (MEK5; MEK5) of 89% and a remaining activity at 0.1 µM (MRCKA; MRCKA) of 100%. For the same compound, the remaining activity at 0.1 µM (MST1; MST1) was 100%, the remaining activity at 0.1 µM (NDR1; NDR1) was 100% and the remaining activity at 0.1 µM (NEK9; NEK9) was 100%. For the same compound, the remaining activity at 0.1 µM (PAK7; PAK7) was 100%, the remaining activity at 0.1 µM (PIK3CD; PIK3CD) was 99% and the remaining activity at 0.1 µM (PIK3CG; PIK3CG) was 100%. It also gave a remaining activity at 0.1 µM ([2]; RSK1(Kin.Dom.1-N-terminal)) of 96%, a remaining activity at 0.1 µM (SgK110; SgK110) of 81% and a remaining activity at 0.1 µM (SRC; SRC) of 97%. The remaining activity at 0.1 µM (TGFBR2; TGFBR2) was 100%, the remaining activity at 0.1 µM (TLK1; TLK1) was 100% and the remaining activity at 0.1 µM (TLK2; TLK2) was 100%. For the same compound, the remaining activity at 0.1 µM (TRKA; TRKA) was 100% and the remaining activity at 0.1 µM ([3]; TYK2(JH2domain-pseudokinase)) was 100%.
With CN(C[C@H](Cc1ccccc1)OP(=O)(O)O)C(=O)c1cncc(C#Cc2cnn(C(F)F)c2)c1 [Example 19, (S)-1-(5-((1-(difluoromethyl)-1H-pyrazol-4-yl)ethynyl)-N-methylnicotinamido)-3-phenylpropan-2-yl dihydrogen phosphate] the remaining activity at 0.1 µM [1] was 100%, the remaining activity at 0.1 µM (ASK1) was 100% and the remaining activity at 0.1 µM (CAMK1B) was 83%. For the same compound, the remaining activity at 0.1 µM (CDK2) was 100%, the remaining activity at 0.1 µM (CDK9) was 100% and the remaining activity at 0.1 µM (CLK2) was 100%. It also gave a remaining activity at 0.1 µM (EPHB1) of 100%, a remaining activity at 0.1 µM (GRK4) of 100% and a remaining activity at 0.1 µM (HIPK1) of 82%. The remaining activity at 0.1 µM (INSRR) was 100%, the remaining activity at 0.1 µM (KIT(D816H)) was 98% and the remaining activity at 0.1 µM (LOK) was 100%. It also gave a remaining activity at 0.1 µM (LYN) of 80%, a remaining activity at 0.1 µM (MEK5) of 87% and a remaining activity at 0.1 µM (MRCKA) of 100%. The remaining activity at 0.1 µM (MST1) was 100%, the remaining activity at 0.1 µM (NDR1) was 100% and the remaining activity at 0.1 µM (NEK9) was 100%. For the same compound, the remaining activity at 0.1 µM (PAK7) was 100%, the remaining activity at 0.1 µM (PIK3CD) was 85% and the remaining activity at 0.1 µM (PIK3CG) was 100%. The remaining activity at 0.1 µM [2] was 100%, the remaining activity at 0.1 µM (SgK110) was 77% and the remaining activity at 0.1 µM (SRC) was 100%. For the same compound, the remaining activity at 0.1 µM (TGFBR2) was 100%, the remaining activity at 0.1 µM (TLK1) was 100% and the remaining activity at 0.1 µM (TLK2) was 100%. For the same compound, the remaining activity at 0.1 µM (TRKA) was 81% and the remaining activity at 0.1 µM [3] was 90%.

From patent US11767310B2, “Nicotinamide RIPK1 inhibitors” (AbbVie Inc., priority 2021, dated 2023)
